# Reference: PMC7076672, “Improving the Oral Bioavailability of an Anti-Glioma Prodrug CAT3 Using Novel Solid Lipid Nanoparticles Containing Oleic Acid-CAT3 Conjugates” (Pharmaceutics, 2020)
# Like-named read-outs stand apart in the source and are kept apart here.
# Assays:
# [1] = In vitro release under simulated gastrointestinal conditions (dialysis bag); type: physicochemical; conditions: 0.1% SDS medium, 37 °C
# Protocol: Drug release from SLN was monitored in vitro under simulated gastrointestinal conditions. The tests were performed by placing 2 mL SLN samples (containing 2 mg CAT3) into 400 mL of the dissolution medium maintained at 37 °C. The dissolution media contained 0.1% SDS (w/v) to meet sink conditions. Preswollen 8–10 kDa MWCO dialysis bags (Sigma-Aldrich, Madrid, Spain), which contained 5 mL of the blank SDS solution with the same concentration, were placed into the dissolution flask (n = 3). The release behavior of CAT3 was compared under the same condition by placing 5 mg CAT3 powder into the 1000 mL media. The samples (1 mL) were withdrawn at predetermined time points from the dialysis bags and replaced with the same amount of fresh medium maintained at 37 °C. The samples were centrifuged for 5 min at 12,000 rpm, and the resultant supernatants were quantified for drug content. The samples were protected from light during the experiments. The DDsolver software was used to evaluate the drug-release kinetics. An Excel worksheet (Microsoft Corporation, Redmond, WA, USA) was used to control the computing method for comparison with the results obtained using the DDSolver program. According to the example format for each built-in module of the DDSolver, all data were entered into Excel. The relevant parameters were calculated following the step-by-step equations utilizing an Excel spreadsheet.
# [2] = Transepithelial transport study; type: in vitro ADME, canine; conditions: dog, MDCK-MDR1, 37 °C, n = 3
# Protocol: The permeabilities of CAT3 and OA-CAT3-SLN were investigated on an MDCK-MDR1 cell monolayer. MDCK-MDR1 cells were seeded onto 12-well transwell® filter inserts (pore size 0.4 μm, surface area 1.12 cm^2; Corning Incorporated, Corning, NY, USA) at a density of 2 × 10^5 cells/well. The culture medium was changed every 24 h for seven days, and the cell monolayers with a transepithelial electrical resistance (TEER) above 110 Ω·cm^2 were used for the transport experiments. Prior to performing the TEER test, the culture medium was removed, and the monolayer was pre-incubated with 0.5 mL of Hanks’ balanced salt solution (HBSS) for 20 min at 37 °C. […]
# To investigate the mechanism of cellular internalization of OA-CAT3-SLN, various specific endocytic inhibitors were evaluated in the uptake study. […]
# The amount of CAT3 or OA-CAT3-SLN that permeated that through the monolayer was determined using the liquid chromatography-mass spectrometry (LC-MS/MS) system. The apparent permeability coefficient (Papp) of CAT3 or OA-CAT3-SLN was calculated according to the following equation: Papp = dQ/dt × 1/(A × C0), where dQ/dt indicates the linear appearance rate of mass at the BL side (μmol/s), C0 is the initial concentration of CAT3 or OA-CAT3-SLN on the AP side (μmol/mL), and A is the surface area of the monolayer (cm^2).
# [3] = system: C6 glioma cells; assay: In vitro cytotoxicity analysis (MTT assay); type: cell-based; conditions: 0.64 ng/mL
# Protocol: Cytotoxicity of the CAT3 suspension, OA-CAT3-SLN, and blank SLN against the C6 brain glioma cell line was measured by 3-(4,5-dimethylthiazol-2-yl)-2,5 diphenyltetrazolium bromide (MTT) assay. Briefly, the cells were seeded into 96-well plates at a cell density of 2 × 10^4 cells/mL (100 μL/well). After 24 h of incubation, the cells were further incubated for 24, 48, and 72 h in fresh DMEM complete medium containing 0.64 ng/mL CAT3 suspension, OA-CAT3-SLN, or the blank SLN, respectively. At the above-mentioned time points, the culture medium was replaced by the MTT solution (0.5 mg/mL, 200 μL/well), followed by incubation for further 4 h. The supernatant was removed and 100 μL of DMSO solution was added to the wells. The absorbance values of each well were measured at 570 nm using a microplate reader (Synergy H1 Hybrid Multi-Mode Microplate Reader, BioTek, Winooski, VT, USA).
# [4] = system: human cell lines; conditions: versus pro-drug CAT3; cited from earlier work
# [5] = system: P-gp; parameters: method as in PMID 25936609, PMID 35547992; conditions: cited from earlier work
SMILES,CAT3 released in the first 24 h [1],"Papp A→B at 2 h, 100 ng/mL [2] [×10⁻⁶ cm/s]","viability at 0.00064 µg/mL ([3]; 24 h, n = 3, read-out: cell viability 24 h) [%]","viability at 0.00064 µg/mL ([3]; 48 h, n = 3, read-out: cell viability 48 h) [%]","viability at 0.00064 µg/mL ([3]; 72 h, n = 3, read-out: cell viability 72 h) [%]","in vitro antitumor activity, times greater than CAT3 [4]",P-gp substrate [5]
"COc1cc2c3c(c4ccc(OC(=O)C(C)(C)C)cc4c2cc1OC)C[C@@H]1CCCN1C3 [CAT3, 13a-(S)-3-pivaloyloxyl-6,7-dimethoxyphenanthro(9,10-b)-indolizidine]",more than 80%,0.106 ± 0.0289,81.2,46.2,16.5,,
"COc1cc2c3c(c4ccc(O)cc4c2cc1OC)C[C@@H]1CCCN1C3 [PF403, 13a(S)-3-hydroxyl-6,7-dimethoxyphenanthro(9,10-b)-indolizidine]",,,,,,about 1000 times,substrate of P-gp
